Data taken from patent US20190055517A1, “Cell Line of M2c Macrophage and Its Applications” (National Pingtung University of Science and Technology, priority 2017, published 2019).

How the values were obtained:
[1] = test system: M1 and M2 macrophage derived from Raw264.7 cell line; test: mRNA expression of VEGF family, VEGF receptor and PD-L1 by RT-qPCR in Raw264.7 derived macrophages; format: cell-based, murine
Method: In this example, experiment was performed to observe if baicalin can induce expression of VEGF family and PD-L1 in M1 and M2 macrophage derived from Raw264.7 cell line (ATCC, USA). M1 macrophage obtained from treating Raw264.7 macrophage with LPS (1 μg/ml, Sigma-Aldrich) for 2 hours, and M0 macrophage (control group) cultured in simple RPMI 1640 (10% FCS) medium, are respectively cultured in RPMI 1640 (10% FCS) medium with either Baicalin (50 μM, Tokyo Chemical Industry, Japan) or […] (10 ng/ml, Cell Guidance System, Cambridge, UK). Collect the cells after 24/48/72 hours of cell culturing. Then observe the mRNA expression level of VEGF family, VEGF receptor and PD-L1 using reverse transcription-real time PCR (RT-qPCR).

murine M2 macrophage [2] = test: Macrophage cell morphology under microscope; format: cell-based; details: versus M-CSF control and comparison 2, FIG. 4
Method: (§1) Embodiment 1 is prepared by the steps described above, isolate monocytes from murine bone marrow and use M-CSF to induce differentiation of M2 macrophage, and then use baicalin to induce M2C macrophage polarization. In comparison 1, incubate murine M2 macrophage in RPMI 1640 (10% FCS) containing LPS (lipopolysaccharide, 1 μg/ml, Sigma-Aldrich) for 2 hours. In comparison 2, incubate murine M2 macrophage in medium containing IL-4 ([…] Guidance System, Cambridge, UK) for 24 hours. The control group of M2 macrophage is incubated in RPMI 1640 (10% FCS) without any drugs. The conditions are shown below in chart 2.
FIG. 2˜4 show results of macrophage phenotypes analysed by flow cytometry.

murine M2 macrophage [3] = test: mRNA expression level of each gene by real time PCR (qPCR) after induced differentiation; format: cell-based; details: for IL-6 mRNA expression level: conditions of chart 2, FIG. 6
Method: as §1
After induced differentiation is complete, use flow cytometry to analyse the macrophage phenotype, in the meantime, also use real time PCR (qPCR) to observe mRNA expression level of each gene.
TNF-Alpha: M1 macrophage expression gene IRF5: M1 macrophage polarization promoting gene IRF4: M2 macrophage polarization promoting gene ARG1 (Arginase-1): M2a macrophage molecular marker IL-10: cytokine that promotes M2 macrophage polarization and inhibits inflammation IL-6: cytokine that promotes inflammation and also serves as M2b macrophage molecular marker. MERTK: a gene that serves as M2C macrophage molecular marker and promotes phagocytosis PTX3: a gene that serves as M2C macrophage molecular marker and promotes phagocytosis VEGF-A: vascular endothelial growth factor PD-L1: a gene that regulates T cell and promotes tissue autoimmune tolerance

Raw264.7 macrophages = test: VEGF-A protein in conditioned medium by ELISA; format: cell-based, murine; details: baicalin 50 μM, 48 hours, p<0.05, FIG. 13
Method: In this example, experiment was performed to further examine whether […] cells treated with baicalin will express VEGF-A protein. Add LPS (1 μg/ml), baicalin (50 μM) and IL-4 (10 ng/ml) respectively to medium culturing […]; Raw264.7 macrophages (ATCC, USA) and culture for 48 hours. Collect the conditioned medium and quantify VEGF-A protein by EUSA (Mouse VEGF EUSA Kit, Code: EK0541, BosterBio, CA, USA). Control group is cultured in the medium (90% DMEM+10% FBS) without any mentioned drugs. […] […] macrophage treated with baicalin can promote macrophage to secrete VEGF-A protein and the efficacy is greater than IL-4.

murine M2 macrophage [4] = test: Phagocytosis of FITC-Latex beads with PE-anti-MERTK staining (flow cytometry, fluorescence microscopy); format: cell-based
Method: In this example, experiment was performed to evaluate the effect of baicalin induced differentiated […] macrophages in promoting phagocytosis. Treatment conditions of drugs in each group is listed in chart 2, and control group is cultured in RPMI1640 (10% FCS) without any drugs. After treatment, collect 5×10^5 treated cells respectively and add 50 μl FITC-Latex beads (Phagocytosis assay kit (IgG FITC), Cayman Chemical, USA.) to perform phagocytosis experiment for 24 hours, and then use PE-anti-MERTK antibody to mark the cells and observe the fluorescence expression with flow cytometry.

[5] = baicalin 50 μM, 24/48/72 hours, versus groups without baicalin, FIG. 10
[6] = versus IL-4 treated group, same treatment duration, p<0.05, FIG. 11
[7] = conditions of chart 2, P<0.05, FIG. 7 and FIG. 8
[8] = conditions of chart 2, p<0.05, FIG. 5

## O=C(O)[C@H]1O[C@@H](Oc2cc3oc(-c4ccccc4)cc(=O)c3c(O)c2O)[C@H](O)[C@@H](O)[C@@H]1O [Baicalin]
[1]; baicalin 50 μM, 24/48/72 hours, versus M1, M2 macrophages without baicalin treatment (LPS, control), FIG. 9
  VEGF-A mRNA expression level: higher
[1]; [5]
  VEGFR-1 mRNA expression level: higher
  VEGFR-2 mRNA expression level: higher
[1]; [6]
  VEGF-A mRNA expression level: significantly higher
  VEGFR1 mRNA expression level: significantly higher
  VEGFR2 mRNA expression level: significantly higher
[1]; versus M1, M2 macrophages without baicalin treatment, p<0.05, FIG. 12
  PD-L1 mRNA expression level: higher
Murine M2 macrophage [2]
  morphology of macrophages: ellipse instead of spindle shaped
Murine M2 macrophage [3]
  IL-6 mRNA expression level: significantly lower than comparison 1
Murine M2 macrophage [3]; listed as embodiment 1
  IL-6 mRNA expression level: low
Murine M2 macrophage [3]; conditions of chart 2, P<0.05, FIG. 6
  IL-10 mRNA expression level: significantly higher than comparison 1 and 2
Murine M2 macrophage [3]; [7]
  MERTK mRNA expression level: significantly higher than control, comparison 1 and 2
  PD-L1 mRNA expression level: significantly higher than control, comparison 1 and 2
  PTX3 mRNA expression level: significantly higher than control, comparison 1 and 2
  VEGF-A mRNA expression level: significantly higher than control, comparison 1 and 2
Murine M2 macrophage [3]; [8]
  IRF4 mRNA expression level: significantly lower than comparison 2
  IRF5 mRNA expression level: significantly lower than comparison 1
  TNF-Alpha mRNA expression level: significantly lower than comparison 1
Murine M2 macrophage [3]; conditions of chart 2, p<0.05, FIG. 6
  ARG1 mRNA expression level: significantly lower than comparison 2
Raw264.7 macrophages
  VEGF-A protein detected in conditioned medium: higher than control group and other groups treated with other drugs
Murine M2 macrophage [4]; FITC-Latex beads 24 hours, FIG. 16
  percentage of cells that phagocytosed the beads: approximately 30%
Murine M2 macrophage [4]; FITC-Latex beads 24 hours, PE-anti-MERTK, FIG. 17
  percentage of cells that phagocytosed beads and also express MERTK protein: 30%
Murine M2 macrophage [4]; fluorescence microscope, PE-MERTK, FIG. 18
  MERTK fluorescence distribution of cells after phagocytosing FITC-Latex beads: express MERTK on cell membrane
